Laboratory results: paper PMC10087387, “Molecular docking, molecular dynamics simulations and in vitro screening reveal cefixime and ceftriaxone as GSK3β covalent inhibitors” (RSC Advances, 2023)
Read-outs that look alike come from different tables or passages of the source.

Columns and labels:
GSK3β [1] = target: T1, GSK3β (Homo sapiens, UniProt P49841); assay: Z'-LYTE kinase assay, […] ATP, […] min preincubation (IC50 […] without preincubation); type: biochemical
T1 construct: gene GSK3B

GSK3β [2] = target: T1, GSK3β; assay: as above; type: biochemical; remark: listed apart in the source

T1 sequence (P49841 whole entry): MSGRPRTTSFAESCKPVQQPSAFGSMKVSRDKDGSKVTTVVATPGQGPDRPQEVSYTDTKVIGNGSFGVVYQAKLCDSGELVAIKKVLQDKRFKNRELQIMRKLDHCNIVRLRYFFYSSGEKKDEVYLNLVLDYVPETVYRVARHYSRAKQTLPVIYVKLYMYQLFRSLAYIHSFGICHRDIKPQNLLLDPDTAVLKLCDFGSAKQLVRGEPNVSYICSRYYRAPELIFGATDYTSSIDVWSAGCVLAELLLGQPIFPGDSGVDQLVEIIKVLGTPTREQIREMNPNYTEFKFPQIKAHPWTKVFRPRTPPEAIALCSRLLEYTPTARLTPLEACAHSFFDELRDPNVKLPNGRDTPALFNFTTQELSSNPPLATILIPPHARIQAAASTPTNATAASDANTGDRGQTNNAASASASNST

SMILES	IC50 (GSK3β [1]) [µM]	IC50 (GSK3β [2]) [µM]
C=CC1=C(C(=O)O)N2C(=O)[C@@H](NC(=O)/C(=N\OCC(=O)O)c3csc(N)n3)[C@H]2SC1 [A, cefixime]	0.55	
CO/N=C(\C(=O)N[C@@H]1C(=O)N2C(C(=O)O)=C(CSc3nc(=O)c(=O)[nH]n3C)CS[C@H]12)c1csc(N)n1 [B, ceftriaxone]		0.78
